From patent publication US6737383B1, “Herbicidal oxadiazolidines” (priority 1999, dated 2004)

Key:
[1] = test system: corn; assay: Test B pre/postemergence corn; format: in vivo, Zea mays; conditions: for Corn plant response rating (0 to 10 scale): 0 is no effect
Summary of the method: (§1)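 Test chemicals in a non-phytotoxic solvent mixture with surfactant were sprayed preemergence onto planted seeds and postemergence onto plants 2 to 18 cm tall (1- to 4-leaf stage). After twelve to sixteen days in a greenhouse, injury was visually rated against untreated controls from 0 (no effect) to 10 (complete control).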

[2] = test system: duck salad; assay: Test B flood test duck salad; format: in vivo, Heteranthera limosa
Summary of the method: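 Flood test on plants grown to the 2-leaf stage; treated plants kept in greenhouse twelve to sixteen days, then visually rated against controls on a 0 (no effect) to 10 (complete control) scale.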

[3] = test system: rape; assay: Test B pre/postemergence rape; format: in vivo, Brassica napus; conditions: for Rape plant response rating (0 to 10 scale): 0 is no effect
Summary of the method: as §1

[4] = test system: sugar beet; assay: Test B pre/postemergence sugar beet; format: in vivo, Beta vulgaris; conditions: for Sugarbeets plant response rating (0 to 10 scale): 0 is no effect
Summary of the method: as §1

[5] = Postemergence, Rate 62 g/ha, scale 0 to 10, 0 is no effect, 10 is complete control
[6] = Postemergence, Rate 250 g/ha, scale 0 to 10, 0 no effect, 10 complete control
[7] = Preemergence, Rate 62 g/ha, scale 0 to 10, 0 is no effect, 10 is complete control
[8] = Preemergence, Rate 125 g/ha, scale 0 to 10 (0 no effect, 10 complete control)
[9] = Preemergence, Rate 250 g/ha, scale of 0 to 10 where 0 is no effect and 10 is complete control
[10] = Preemergence, Rate 500 g/ha, scale 0 (no effect) to 10 (complete control)
[11] = Rate 125 g/ha, Postemergence, scale 0 to 10, 0 no effect, 10 complete control
[12] = Rate 500 g/ha, Postemergence, 0 to 10 scale (0 no effect, 10 complete control)
[13] = Postemergence, Rate 1000 g/ha, scale 0 to 10 (0 no effect, 10 complete control)
[14] = Preemergence, Rate 62 g/ha, scale of 0 to 10 where 0 is no effect and 10 is complete control
[15] = Preemergence, Rate 125 g/ha, 10 is complete control
[16] = Preemergence, Rate 250 g/ha, scale 0 to 10, 0 is no effect, 10 is complete control
[17] = Preemergence, Rate 500 g/ha, scale 0 to 10 (0 no effect, 10 complete control)
[18] = Rate 62 g/ha, Postemergence, scale of 0 to 10 where 0 is no effect and 10 is complete control
[19] = Rate 125 g/ha, Postemergence, scale 0 to 10
[20] = Rate 500 g/ha, Postemergence, scale 0 to 10
[21] = Rate 1000 g/ha, Preemergence, scale 0 to 10 (0 no effect, 10 complete control)
[22] = Rate 2000 g/ha, Postemergence, scale 0 to 10
[23] = Rate 2000 g/ha, Preemergence, scale 0 to 10
[24] = Rate 62 g/ha, headed Pre-emergence (flood test species), scale 0 to 10 (0 no effect, 10 complete control)
[25] = Rate 125 g/ha, Pre-emergence, flood test species, scale 0 to 10 where 0 is no effect and 10 is complete control
[26] = Rate 250 g/ha, Pre-emergence, flood-test species, scale 0 to 10, 0 is no effect, 10 is complete control
[27] = Rate 500 g/ha, headed Pre-emergence (flood test species), scale 0 to 10 (0 no effect, 10 complete control)
[28] = Preemergence, Rate 500 g/ha, scale of 0 to 10 where 0 is no effect and 10 is complete control
[29] = Postemergence, Rate 250 g/ha, scale 0 to 10, 0 is no effect, 10 is complete control
[30] = Postemergence, Rate 500 g/ha, scale of 0 to 10 where 0 is no effect and 10 is complete control
[31] = Preemergence, Rate 62 g/ha, scale 0 to 10 (0 no effect, 10 complete control)
[32] = Preemergence, Rate 125 g/ha, scale of 0 to 10 where 0 is no effect and 10 is complete control
[33] = Preemergence, Rate 500 g/ha, scale 0 to 10, 0 is no effect, 10 is complete control

With `Cc1ccccc1-n1c(=O)on(C(=O)N(c2cc(OC(C)C)c(Cl)cc2Cl)C(C)C)c1=O` [Compound 42] the “Corn plant response rating” value [1, 5] was 0, the “Corn plant response rating” value [1, 6] was 0 and the “Plant response rating, Corn” value [1, 7] was 0. For the same compound, the “Plant response rating, Corn” value [1, 8] was 0, the “Plant response rating, Corn” value [1, 9] was 0 and the “Corn plant response rating” value [1, 10] was 0. The “Corn plant response rating” value [1, 11] was 0, the “Corn plant response rating” value [1, 12] was 0 and the “Ducksalad plant response rating” value [2, 5] was 0. The “Ducksalad plant response rating” value ([2]; Rate 125 g/ha, Postemergence section (flood test species), scale 0 to 10, 0 no effect, 10 complete control) was 0, the “Ducksalad plant response rating” value ([2]; Rate 500 g/ha, Postemergence section of Table B, 0 to 10 scale (0 no effect, 10 complete control)) was 0 and the “Ducksalad plant response rating” value ([2]; flood test, listed under Postemergence, Rate 250 g/ha, scale 0 to 10, 0 no effect, 10 complete control) was 0. For the same compound, the “Rape plant response rating” value [3, 5] was 0, the “Rape plant response rating” value [3, 6] was 0 and the “Plant response rating, Rape” value [3, 7] was 0. The “Plant response rating, Rape” value [3, 8] was 0, the “Plant response rating, Rape” value [3, 9] was 0 and the “Rape plant response rating” value [3, 10] was 0. The “Rape plant response rating” value [3, 11] was 0, the “Rape plant response rating” value [3, 12] was 0 and the “Sugarbeets plant response rating” value [4, 5] was 0. For the same compound, the “Sugarbeets plant response rating” value [4, 6] was 0, the “Plant response rating, Sugarbeets” value [4, 7] was 0 and the “Plant response rating, Sugarbeets” value [4, 8] was 0. For the same compound, the “Plant response rating, Sugarbeets” value [4, 9] was 0, the “Sugarbeets plant response rating” value [4, 10] was 0 and the “Sugarbeets plant response rating” value [4, 11] was 0.
For `CCN(C(=O)n1oc(=O)n(N(C)c2ccccc2)c1=O)C1CCCCC1` [Compound 183], the “Corn plant response rating” value [1, 13] was 0, the “Corn plant response rating” value [1, 14] was 0 and the “Corn plant response rating (0 to 10 scale)” value [1, 15] was 0. The “Corn plant response rating” value [1, 16] was 0, the “Corn plant response rating” value [1, 17] was 0 and the “Corn plant response rating” value [1, 18] was 0. The “Corn plant response rating” value [1, 19] was 0, the “Plant response rating (0 to 10; 0 is no effect, 10 is complete control), Corn” value ([1]; Rate 250 g/ha, Postemergence) was 0 and the “Corn plant response rating” value [1, 20] was 0. The “Plant response rating, Corn” value [1, 21] was 0, the “Corn plant response rating” value [1, 22] was 0 and the “Corn plant response rating” value [1, 23] was 0. For the same compound, the “Ducksalad plant response rating” value [2, 24] was 0, the “Ducksalad plant response rating” value [2, 25] was 0 and the “Ducksalad plant response rating” value [2, 26] was 0. The “Plant response rating, Ducksalad” value [2, 27] was 0, the “Ducksalad plant response rating” value ([2]; Rate 1000 g/ha, Pre-emergence (as headed), scale 0 to 10) was 0 and the “Ducksalad plant response rating” value ([2]; Rate 2000 g/ha, Pre-emergence (as headed), scale 0 to 10) was 0. For the same compound, the “Rape plant response rating” value [3, 13] was 0, the “Rape plant response rating” value [3, 14] was 0 and the “Rape plant response rating (0 to 10 scale)” value [3, 15] was 0. The “Rape plant response rating” value [3, 16] was 0, the “Rape plant response rating” value [3, 17] was 0 and the “Rape plant response rating” value [3, 18] was 0. The “Rape plant response rating” value [3, 19] was 0, the “Plant response rating (0 to 10; 0 is no effect, 10 is complete control), Rape” value ([3]; Rate 250 g/ha, Postemergence) was 0 and the “Rape plant response rating” value [3, 20] was 0. The “Plant response rating, Rape” value [3, 21] was 0, the “Rape plant response rating” value [3, 22] was 0 and the “Rape plant response rating” value [3, 23] was 0. For the same compound, the “Sugarbeets plant response rating” value [4, 13] was 0, the “Sugarbeets plant response rating” value [4, 14] was 0 and the “Sugarbeets plant response rating (0 to 10 scale)” value [4, 15] was 0. For the same compound, the “Sugarbeets plant response rating” value [4, 16] was 0, the “Sugarbeets plant response rating” value [4, 17] was 0 and the “Sugarbeets plant response rating” value [4, 18] was 0. For the same compound, the “Sugarbeets plant response rating” value [4, 19] was 0, the “Plant response rating (0 to 10; 0 is no effect, 10 is complete control), Sugarbeets” value ([4]; Rate 250 g/ha, Postemergence) was 0 and the “Sugarbeets plant response rating” value [4, 20] was 0. The “Plant response rating, Sugarbeets” value [4, 21] was 0, the “Sugarbeets plant response rating” value [4, 22] was 0 and the “Sugarbeets plant response rating” value [4, 23] was 0.
With `Cc1nc(C)c(-n2c(=O)on(C(=O)N(c3ccccc3)C(C)C)c2=O)s1` [Compound 197] the “Corn plant response rating” value [1, 14] was 0, the “Corn plant response rating (0 to 10 scale)” value [1, 15] was 0 and the “Corn plant response rating” value [1, 16] was 0. The “Plant response rating, Corn” value [1, 28] was 0, the “Corn plant response rating” value [1, 18] was 0 and the “Corn plant response rating” value [1, 19] was 0. The “Plant response rating (0 to 10; 0 is no effect, 10 is complete control), Corn” value ([1]; Rate 250 g/ha, Postemergence) was 0, the “Corn plant response rating” value [1, 20] was 0 and the “Ducksalad plant response rating” value [2, 24] was 0. The “Ducksalad plant response rating” value [2, 25] was 0, the “Ducksalad plant response rating” value [2, 26] was 0 and the “Plant response rating, Ducksalad” value [2, 27] was 0. The “Rape plant response rating” value [3, 14] was 0, the “Rape plant response rating (0 to 10 scale)” value [3, 15] was 0 and the “Rape plant response rating” value [3, 16] was 0. For the same compound, the “Plant response rating, Rape” value [3, 28] was 0, the “Rape plant response rating” value [3, 18] was 0 and the “Rape plant response rating” value [3, 19] was 0. For the same compound, the “Plant response rating (0 to 10; 0 is no effect, 10 is complete control), Rape” value ([3]; Rate 250 g/ha, Postemergence) was 0, the “Rape plant response rating” value [3, 20] was 0 and the “Sugarbeets plant response rating” value [4, 14] was 0. The “Sugarbeets plant response rating (0 to 10 scale)” value [4, 15] was 0, the “Sugarbeets plant response rating” value [4, 16] was 0 and the “Plant response rating, Sugarbeets” value [4, 28] was 0. The “Sugarbeets plant response rating” value [4, 18] was 0, the “Sugarbeets plant response rating” value [4, 19] was 0 and the “Plant response rating (0 to 10; 0 is no effect, 10 is complete control), Sugarbeets” value ([4]; Rate 250 g/ha, Postemergence) was 0. For the same compound, the “Sugarbeets plant response rating” value [4, 20] was 0.
For `CC1CC1Cn1c(=O)on(C(=O)N(c2ccc(F)cc2)C(C)C)c1=O` (stereo not drawn) [Compound 402], the “Plant response rating, Corn” value ([1]; Postemergence, Rate 125 g/ha, scale 0 to 10, 0 is no effect, 10 is complete control) was 0, the “Plant response rating, Corn” value [1, 29] was 0 and the “Corn plant response rating” value [1, 30] was 0. The “Plant response rating, Corn” value [1, 31] was 0, the “Plant response rating, Corn” value [1, 32] was 0 and the “Corn plant response rating” value [1, 16] was 3. For the same compound, the “Corn plant response rating” value [1, 33] was 9, the “Corn plant response rating” value [1, 18] was 0 and the “Plant response rating, Ducksalad (0 to 10 scale, 0 is no effect, 10 is complete control)” value ([2]; Rate 62 g/ha, flood test species, Pre-emergence, visual evaluation after twelve to sixteen days) was 0. For the same compound, the “Ducksalad plant response rating (0 to 10 scale, 0 is no effect, 10 is complete control)” value ([2]; Rate 125 g/ha, under heading Pre-emergence, flood test species, visual evaluation after twelve to sixteen days) was 0, the “Ducksalad plant response rating” value [2, 26] was 0 and the “Ducksalad plant response rating” value ([2]; Rate 500 g/ha, Pre-emergence, flood test species, scale 0 to 10 (0 no effect, 10 complete control)) was 0. For the same compound, the “Plant response rating, Rape” value [3, 29] was 8, the “Rape plant response rating” value [3, 30] was 9 and the “Plant response rating, Rape” value [3, 31] was 0. The “Plant response rating, Rape” value [3, 32] was 1, the “Rape plant response rating” value [3, 16] was 5 and the “Rape plant response rating” value [3, 33] was 8. The “Rape plant response rating” value [3, 18] was 1, the “Plant response rating, Sugarbeets” value [4, 29] was 2 and the “Sugarbeets plant response rating” value [4, 30] was 2. For the same compound, the “Plant response rating, Sugarbeets” value [4, 31] was 0, the “Plant response rating, Sugarbeets” value [4, 32] was 0 and the “Sugarbeets plant response rating” value [4, 16] was 3. The “Sugarbeets plant response rating” value [4, 33] was 8 and the “Sugarbeets plant response rating” value [4, 18] was 1.
